# Data as given in patent US10532987B2, “Compounds and methods for inducing browning of white adipose tissue” (GUANGZHOU INSTITUTES OF BIOMEDICINE AND HEALTH, CHINESE …, priority 2015, dated 2020).
# What was measured:
# Ucp1 = assay: UCP1 luciferase assay (Ucp1 up-regulation in differentiated inguinal adipocytes of Ucp1-luciferase knock-in mice); assay type: cell-based; conditions: Mus musculus, Adipocyte, 48 h; at 3 μM; 2 days treatment; luciferase activity; read-out: Ucp1 activation fold/corresponding concentration
# Procedure: TEST EXAMPLE 1 UCP1 Luciferase Assay
# Evaluating Compounds that Induce Ucp1 Up-Regulation
# Ucp1-luciferase knock-in mice will be housed in cages and fed on standard chow diets (the detailed procedures please see reference 14). The 8-week-old mice will be killed by the cervical dislocation and put into 75% alcohol for 5 minutes. The inguinal adipose tissue will be dissected out and transferred to the three 10-cm petri dishes and washed with PBS for three times. The adipose tissue will be dissected and minced on a 10-cm petri dish for several minutes and then pipetted into 20 ml 0.1% collagenase solution in 50 ml conical tubes and digested at 37° C. for 1 hour. Next, 20 ml culture medium will be added to terminate the digestion and centrifuged for 10 minutes at 1000 rpm respectively. The supernatants will be removed and the pellets re-suspended in 10 mL culture medium and plated into 10-cm plates. The cells will be left to adhere to the plates overnight and the culture medium will be changed every other day. The confluent cells will be trypsinized, counted and plated to 24-well plate (5×10^4 cells/well). The cells will be washed and re-fed the next day (as day −2). Two days later (day 0), the cells will usually become confluent and be induced to differentiate with MDIR medium. On day 2, the medium will be changed to IR medium and re-fed every 2 days. Complete differentiation is usually achieved by day 10. On day 10, the medium will be changed to the culture medium of 10% FBS/DMEM with indicated drugs along with the positive and negative controls for 2 days. The media will be removed and the cells washed with 1 ml PBS per well three times. Then 100 μl lysis buffer will be used to lyse the cells at 4° C. for 1 hour. 30 μl culture medium, 30 μl cell lysates and 60 μl Steady-Glo® Reagent were added to a well of 96-well-plate and the luminescence will be measured using a luminometer. The protein concentration will be determined using 20 μl cell lysates and specific activity of luciferase will be tabulated and data analyzed.
# white adipose tissue = assay: High fat diet induced obesity mouse model; hematoxylin and eosin staining and UCP1 immunochemistry of adipose tissue; assay type: in vivo, mice; conditions: 50 mg/kg daily gavage, compared with control group
# Procedure: 8-week-old male mice (57BL/6J) were housed in metabolism cages and maintained on a 12 h lightdark cycle at 23° C. and fed high fat diet (HFD) (21.9 kJ/g, 60% of energy as fat, 20% of energy as protein, 20% of energy as carbohydrate; D12492; Research Diet, New Brunswick, N.J., USA) for 8 weeks. Then, diets induced obese mice were randomized into two groups according to glucose levels and body weight and gavaged with daily indicated drugs (50 mg/kg) or vehicle. Food intake and body weight was measured weekly. All experiments with animals were approved by the Animal Care and Use Committee of Guangzhou Institute of Biomedicine and Health, Chinese Academy of Sciences.
# Hematoxylin and eosin staining was performed as the standard protocol (see reference 15). As to the results, please see FIG. 1 (left panel) using compound 1 as the test compound.
# Wash sections in dH2O three times for 5 minutes each. Incubate sections in 3% hydrogen peroxide for 10 minutes. Wash sections in dH2O twice for 5 minutes each, and then wash sections in wash buffer for 5 minutes. Block each section with 100-400 μl blocking solution for 1 hour at room temperature. Remove blocking solution and add 100-400 μl primary UCP1 antibody to each section. Incubate overnight at 4° C. Remove antibody solution and wash sections in wash buffer three times for 5 minutes each. […]
smiles,measurement,setting,value
"COc1ccc(-c2csc(Nc3ccccn3)n2)cc1OC [Compound 1, 4-(3,4-dimethoxyphenyl)-N-(pyridin-2-yl)thiazol-2-amine]",fold induction at 3 µM,Ucp1,5.2
same,browning of adipose tissue (hematoxylin and eosin staining and UCP1 immunochemistry),white adipose tissue; 16-week-old obese mice (57BL/6J) induced by high fat diet for 8 weeks,promotes browning of adipose tissue
same,adipose tissue cell size and cell number,white adipose tissue; 16-week-old obese mice induced by high fat diet for 8 weeks,reduced cell size and increased cell number
